Earlier results in PMC6256996, “Natural products as new antimitotic compounds for anticancer drug development” (Clinics, 2018).
Read-outs that look alike come from different tables or passages of the source.

What was measured:
[1] = system: peripheral blood mononuclear cells (PBMCs); parameters: method as in doi:10.2174/1570180814666171012162557; details: 72h of treatment; mean±SEM
HCT-8 = system: HCT-8; parameters: method as in doi:10.2174/1570180814666171012162557; details: for SI PBMC/HCT-8: cytotoxic selectivity index, IC50 for PBMCs/cancer cell line
OVCAR-8 = system: OVCAR-8; parameters: method as in doi:10.2174/1570180814666171012162557; details: for SI PBMC/OVCAR-8: cytotoxic selectivity index, IC50 for PBMCs/cancer cell line
HL60 = system: HL60; parameters: method as in doi:10.2174/1570180814666171012162557; details: for SI PBMC/HL-60: cytotoxic selectivity index, IC50 for PBMCs/cancer cell line
HL-60 cells [2] = system: HL-60 cells; parameters: method as in PMID 16316665; details: 3 hours
K562 cells = system: K562 cells; parameters: method as in PMID 15787450, doi:10.1007/s11418-006-0118-3; details: 48-hour incubation
HL-60 cells [3] = system: HL-60 cells; parameters: method as in PMID 16316665
HL-60 cells [4] = system: HL-60 cells; parameters: method as in PMID 16316665; details: lowest treatment concentration (3.97 μmol.L^-1)

IC50 (HCT-8; read-out: IC50 in HCT-8 tumor cell line)	IC50 (OVCAR-8; read-out: IC50 in OVCAR-8 tumor cell line)	IC50 (HL60; read-out: IC50 in HL-60 tumor cell line)	IC50 (HCT-8; 72h of treatment, mean±SEM, read-out: HCT-8 (mean IC50±SEM))	IC50 (OVCAR-8; 72h of treatment, mean±SEM, read-out: OVCAR-8 (mean IC50±SEM))	IC50 (HL60; 72h of treatment, mean±SEM, read-out: HL60 (mean IC50±SEM))	Compound	IC50 [1]	SI PBMC/HCT-8 (HCT-8; 72h of treatment)	SI PBMC/OVCAR-8 (OVCAR-8; 72h of treatment)	SI PBMC/HL-60 (HL60; 72h of treatment)	Inhibition of BrdU incorporation during the S phase (HL-60 cells [2]; 3.97 μmol.L^-1)	Inhibition of BrdU incorporation during the S phase (HL-60 cells [2]; 7.95 μmol.L^-1)	Inhibition of BrdU incorporation during the S phase (HL-60 cells [2]; 15.9 μmol.L^-1)	IC50, proliferation of K562 cells (K562 cells)	Cells with DNA fragmentation (HL-60 cells [3]; HL-60 cells permeabilized with Triton X-100, 24-hour treatment, 3.97, 7.95 and 15.9 μmol.L^-1)	Cell cycle arrest (DNA content) (HL-60 cells [3]; HL-60 cells, 15.9 μmol.L^-1)	Membrane damage (HL-60 cells [3]; HL-60 cells, 24-hour treatment, 3.97, 7.95 and 15.9 μmol.L^-1)	HL-60 cell population with depolarized mitochondria (HL-60 cells [4])
5 nM	9 nM	0.3 nM				COc1cc(C(=O)N/N=C/c2cc3ccccc3s2)cc(OC)c1OC [LASSBio-1920]	100 ± 11 nM	20.0	11.11	333.30								
			450 ± 81 nM	290 ± 40 nM	290 ± 1.2 nM	COc1cc(C(=O)N/N=C/c2ccccc2)cc(OC)c1OC [LASSBio-1586]	1340 ± 65 nM	3.0	4.60	4.60								
						COc1ccc2c(c1)O[C@@H]1c3cc(OC)c(OC)cc3OC[C@H]21 [(+)2,3,9-trimethoxypterocarpan, (+)2,3,9-Trimethoxypterocarpan]					37%	38%	56%	0.8 µg/mL	~50%	arrested at the G2/M phase transition	no significant membrane damage	38.6%
						COc1ccc(/C=C\c2cc(OC)c(OC)c(OC)c2)cc1O [CA-4, combretastatin A-4, reference compound]	3.2 nM	0.60	6.40	1.45								
